Data taken from ChEMBL document CHEMBL1759865, “Synthesis, biological assessment and molecular modeling of 14-aryl-10,11,12,14-tetrahydro-9H-benzo[5,6]chromeno[2,3-b]quinolin-13-amines” (Bioorg Med Chem Lett, 2011).
Calls of active or inactive are those of the source. The rule behind the calls is not given here.

How the values were obtained:
[1] = Inhibition of […]-induced intracellular Ca2+ uptake in bovine Chromaffin cells at 100 uM; format: functional; conditions: Bos taurus
SH-SY5Y = assay: Neuroprotective activity in human SH-SY5Y cells by MTT assay; format: functional
Bos taurus = species on record: Bos taurus; assay: Inhibition of K(+)-induced intracellular Ca2+ uptake in bovine Chromaffin cells at 100 uM; format: functional, cell-based
Acetylcholinesterase [2] = biological target: T1, Acetylcholinesterase (Electrophorus electricus, UniProt O42275)
Description: Inhibition of Electrophorus electricus acetylcholinesterase preincubated with compound for 10 mins using acetylcholine iodide as substrate after 15 mins by spectrophotometric analysis

Cholinesterase = Cholinesterase (Equus caballus, UniProt P81908)
Description: Inhibition of horse serum butyrylcholinesterase preincubated with compound for 10 mins using butrylcholine iodide as substrate after 15 mins by spectrophotometric analysis

[3] = biological target: Acetylcholinesterase (Electrophorus electricus) (UniProt O42275); assay: Ratio of compound IC50 to tacrine IC50 for Electrophorus electricus acetylcholinesterase
Acetylcholinesterase [4] = biological target: T1, Acetylcholinesterase; assay: Mixed inhibition of Electrophorus electricus acetylcholinesterase using […] substrate by Ellman's method
[5] = biological target: T2, Acetylcholinesterase (Bos taurus) (UniProt P23795); assay: Displacement of propidium iodide from peripheral anionic site of bovine erythrocyte AChE at 0.1 to 3 uM after 20 hrs by fluorescence plate reader
T2 sequence (whole entry): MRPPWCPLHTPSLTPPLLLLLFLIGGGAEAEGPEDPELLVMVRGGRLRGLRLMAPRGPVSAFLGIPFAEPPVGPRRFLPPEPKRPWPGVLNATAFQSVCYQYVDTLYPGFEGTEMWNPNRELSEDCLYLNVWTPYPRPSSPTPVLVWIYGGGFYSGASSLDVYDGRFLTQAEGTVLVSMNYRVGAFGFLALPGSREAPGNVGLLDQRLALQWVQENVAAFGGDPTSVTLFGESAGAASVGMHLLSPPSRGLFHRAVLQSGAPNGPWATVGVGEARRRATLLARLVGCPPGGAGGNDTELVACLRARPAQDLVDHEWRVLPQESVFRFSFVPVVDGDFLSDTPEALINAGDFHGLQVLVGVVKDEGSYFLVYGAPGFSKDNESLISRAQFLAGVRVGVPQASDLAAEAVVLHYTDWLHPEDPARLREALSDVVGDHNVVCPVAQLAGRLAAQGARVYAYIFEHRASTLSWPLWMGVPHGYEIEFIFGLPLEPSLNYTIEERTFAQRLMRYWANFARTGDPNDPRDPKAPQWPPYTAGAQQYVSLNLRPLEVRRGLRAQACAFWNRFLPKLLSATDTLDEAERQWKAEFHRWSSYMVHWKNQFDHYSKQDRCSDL

Chain of Cholinesterase (P81908 whole entry): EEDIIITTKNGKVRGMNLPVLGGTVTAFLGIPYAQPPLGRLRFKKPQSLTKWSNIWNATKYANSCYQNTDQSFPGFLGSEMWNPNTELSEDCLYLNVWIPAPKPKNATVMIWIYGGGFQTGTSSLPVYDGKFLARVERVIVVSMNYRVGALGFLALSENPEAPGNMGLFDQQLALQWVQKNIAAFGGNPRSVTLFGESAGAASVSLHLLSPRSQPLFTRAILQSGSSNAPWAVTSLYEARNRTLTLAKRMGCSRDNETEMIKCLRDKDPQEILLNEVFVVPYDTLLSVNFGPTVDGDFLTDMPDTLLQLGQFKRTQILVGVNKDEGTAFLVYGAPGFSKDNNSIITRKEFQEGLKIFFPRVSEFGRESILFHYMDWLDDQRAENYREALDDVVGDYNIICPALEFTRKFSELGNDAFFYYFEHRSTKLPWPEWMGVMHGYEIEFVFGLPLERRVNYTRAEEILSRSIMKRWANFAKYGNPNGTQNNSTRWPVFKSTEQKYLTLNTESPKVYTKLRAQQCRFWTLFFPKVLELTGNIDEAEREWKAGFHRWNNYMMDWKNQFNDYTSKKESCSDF
T1 sequence (O42275 whole entry): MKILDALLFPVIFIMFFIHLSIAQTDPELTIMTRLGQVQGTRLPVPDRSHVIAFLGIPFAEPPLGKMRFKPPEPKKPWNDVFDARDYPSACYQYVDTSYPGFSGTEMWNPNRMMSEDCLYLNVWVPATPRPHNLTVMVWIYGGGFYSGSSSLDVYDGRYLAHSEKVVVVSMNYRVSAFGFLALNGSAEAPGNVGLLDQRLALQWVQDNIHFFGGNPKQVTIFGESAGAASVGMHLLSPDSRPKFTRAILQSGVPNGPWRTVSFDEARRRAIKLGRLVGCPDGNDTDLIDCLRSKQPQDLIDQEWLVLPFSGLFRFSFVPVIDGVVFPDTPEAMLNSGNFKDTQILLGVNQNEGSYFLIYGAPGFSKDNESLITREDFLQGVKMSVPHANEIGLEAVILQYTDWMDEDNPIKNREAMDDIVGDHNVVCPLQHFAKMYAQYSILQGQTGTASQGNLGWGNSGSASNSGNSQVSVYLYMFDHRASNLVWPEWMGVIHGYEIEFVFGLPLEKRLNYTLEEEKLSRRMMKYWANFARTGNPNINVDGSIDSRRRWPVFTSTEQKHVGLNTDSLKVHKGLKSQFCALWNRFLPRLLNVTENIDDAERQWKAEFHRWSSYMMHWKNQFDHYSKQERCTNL
Chain of Acetylcholinesterase (Electrophorus electricus) (O42275 24-633 limits assumed): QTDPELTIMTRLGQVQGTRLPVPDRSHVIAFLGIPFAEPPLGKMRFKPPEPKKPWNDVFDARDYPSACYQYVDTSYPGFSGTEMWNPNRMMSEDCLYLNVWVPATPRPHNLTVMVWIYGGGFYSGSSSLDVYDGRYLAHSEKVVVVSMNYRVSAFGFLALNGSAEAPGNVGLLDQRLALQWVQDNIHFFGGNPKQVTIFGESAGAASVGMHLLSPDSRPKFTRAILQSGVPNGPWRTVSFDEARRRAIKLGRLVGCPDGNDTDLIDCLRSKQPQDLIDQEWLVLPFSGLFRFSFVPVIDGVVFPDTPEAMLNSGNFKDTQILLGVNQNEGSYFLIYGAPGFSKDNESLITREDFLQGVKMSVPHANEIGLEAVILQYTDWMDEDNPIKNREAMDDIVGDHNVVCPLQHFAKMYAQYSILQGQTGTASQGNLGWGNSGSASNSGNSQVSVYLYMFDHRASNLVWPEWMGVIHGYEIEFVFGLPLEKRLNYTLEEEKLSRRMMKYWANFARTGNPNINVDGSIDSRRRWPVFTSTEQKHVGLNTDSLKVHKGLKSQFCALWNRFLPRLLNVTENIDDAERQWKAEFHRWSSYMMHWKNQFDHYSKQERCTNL

SMILES | inhibition at 100 µM [1] | Activity (SH-SY5Y) | Activity (Bos taurus) | IC50 (Acetylcholinesterase [2]) | IC50 (Cholinesterase) | Ratio IC50 [3] | Ki (Acetylcholinesterase [4]) | Activity [5]
CCOC(=O)C1=C(C)Oc2nc3c(c(N)c2C1c1ccc(OC)cc1)CCCC3 (centres undefined) | 90% |  |  |  |  |  |  | 
Cc1ccc(C2c3c(nc4c(c3N)CCCC4)Oc3ccc4ccccc4c32)cc1 (racemic) |  | <17% | inactive | 0.043 µM | > 10 µM |  |  | 
Nc1c2c(nc3c1C(c1ccc(O)cc1)c1c(ccc4ccccc14)O3)CCCC2 (racemic) |  | <17% | inactive | 0.007 µM | > 10 µM | 4 | 0.005 µM | inactive
COc1ccc(C2c3c(nc4c(c3N)CCCC4)Oc3ccc4ccccc4c32)cc1 (racemic) |  | <17% | inactive | 0.018 µM | > 10 µM |  |  | 
COc1cccc(C2c3c(nc4c(c3N)CCCC4)Oc3ccc4ccccc4c32)c1 (racemic) |  | <17% | inactive | 0.016 µM | > 10 µM |  |  | 
COc1ccccc1C1c2c(nc3c(c2N)CCCC3)Oc2ccc3ccccc3c21 (racemic) |  | <17% | inactive | 0.02 µM | > 10 µM |  |  | 
COc1cc(C2c3c(nc4c(c3N)CCC4)Oc3ccc4ccccc4c32)ccc1O (racemic) |  | <17% | inactive | 0.101 µM | > 10 µM |  |  | 
COc1cc(C2c3c(nc4c(c3N)CCCC4)Oc3ccc4ccccc4c32)ccc1O (racemic) |  | <17% | inactive | 0.028 µM | > 10 µM |  |  | 
COc1ccc(C2c3c(nc4c(c3N)CCCC4)Oc3ccc4ccccc4c32)cc1OC (racemic) |  | <17% | inactive | 0.026 µM | > 10 µM |  |  | 
COc1cc(C2c3c(nc4c(c3N)CCCC4)Oc3ccc4ccccc4c32)cc(OC)c1OC (racemic) |  | <17% | inactive | 0.026 µM | > 10 µM |  |  | 
Nc1c2c(nc3c1C(c1ccc([N+](=O)[O-])cc1)c1c(ccc4ccccc14)O3)CCCC2 (racemic) |  | <17% | inactive | 0.17 µM | > 10 µM |  |  | 
